One assay deals with TNFα. Description: TNFα expression. The format is cell-based. The text has this:
Accordingly, in a further embodiment of the present invention, there is included a method of treating inflammatory diseases comprising administering a TNFα-downregulating effective amount of a compound of the invention to a subject in need thereof. A person skilled in the art would be able to identify TNFα-downregulating compounds of the invention by contacting one or more cells with a compound of the invention and assaying for the presence of one TNFα and comparing the levels of TNFα in the one or more cells with that of controls. Such methods are known in the art and are described in the examples herein below.

The next assay addresses T1, 11β-HSD2 (Homo sapiens, UniProt P80365).
T1 construct: expressed in transfected cells
T1 sequence (P80365 1-405): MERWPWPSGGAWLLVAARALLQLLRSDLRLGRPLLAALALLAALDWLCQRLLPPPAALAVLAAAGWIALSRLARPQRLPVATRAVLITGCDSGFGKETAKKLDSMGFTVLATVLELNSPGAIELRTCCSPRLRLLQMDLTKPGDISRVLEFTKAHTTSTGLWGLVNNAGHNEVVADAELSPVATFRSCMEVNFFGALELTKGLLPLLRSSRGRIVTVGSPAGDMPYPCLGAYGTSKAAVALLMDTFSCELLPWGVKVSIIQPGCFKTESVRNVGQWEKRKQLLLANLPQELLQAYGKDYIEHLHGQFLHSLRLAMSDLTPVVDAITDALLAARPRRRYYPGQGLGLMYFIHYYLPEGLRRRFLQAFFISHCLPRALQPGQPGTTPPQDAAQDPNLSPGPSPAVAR
As to the kind of experiment: 11β-HSD2 activity in lysates of stably transfected HEK-293 cells. As to conditions: cell lysate. The class given is biochemical. On the procedure: (§1) Cell culture media were purchased from Invitrogen, Basel, Switzerland. [1,2,6,7-3H]-cortisol was from Amersham Pharmacia, Dubendorf, Switzerland. [1,2,6,7-3H]-cortisone was produced by incubating 1 mCi of [1,2,6,7-3H]-cortisol with 1 mg of lysate of HEK-293 cells expressing 11β-HSD2 in the presence of 1 mM NAD+. Incubation was for 16 h at 37° C. […] The product was run for a second chromatographic purification step on the same TLC system. […] All other chemicals were from Fluka AG, Buchs, Switzerland and were of the highest grade available.
HEK-293 cells were transfected with the plasmid for expression of carboxy-terminally FLAG-epitope tagged 11β-HSD1 or 11β-HSD2, respectively, that were described previously. […] Non-resistant cells were removed by replacing the cell culture medium every third day for 3 weeks. […]
(§2) Similarly, reductase activity was measured in a reaction containing NADPH, 30 nCi of [1,2,6,7-3H]-cortisone and unlabeled cortisone, whereby final concentrations were 400 μM NADPH and 10 nM cortisone. […] Activities were determined measuring the conversion of either radiolabeled cortisone or cortisol for 5-20 min using substrate concentrations in the range between 10 nM and 10 μM. 11β-HSD1 activities were measured immediately after cell disruption. […] Results are expressed as mean±S.D. and consist of at least three independent measurements.

A further assay concerns the target T2, 11β-HSD1 (Homo sapiens, UniProt P28845).
T2 construct: expressed in transfected cells
Description: 11β-HSD1 activity in lysates of stably transfected HEK-293 cells. The format is biochemical. As to conditions: cell lysate. As to the method:
as §1
HEK-293 cells were transfected with the plasmid for expression of carboxy-terminally FLAG-epitope tagged 11β-HSD1 or 11β-HSD2, respectively, that were described previously. […] Non-resistant cells were removed by replacing the cell culture medium every third day for 3 weeks.
For determination of oxidative activity of 11β-HSD enzymes, cells were lysed by sonication and the cell lysate was diluted 1:12 in buffer TS2 (at 4° C.).
as §2

Assay [1] has as its system murine retinal ganglion cells. As to conditions: cited from earlier work.
The test system of the next assay is CK-2. The note with it: 30 μM GA; cited from earlier work.
The next assay relates to PKC and CK-I. As to conditions: GL (100 μM); cited from earlier work.

The structures appear in SMILES notation.

T2 sequence (P28845 whole entry): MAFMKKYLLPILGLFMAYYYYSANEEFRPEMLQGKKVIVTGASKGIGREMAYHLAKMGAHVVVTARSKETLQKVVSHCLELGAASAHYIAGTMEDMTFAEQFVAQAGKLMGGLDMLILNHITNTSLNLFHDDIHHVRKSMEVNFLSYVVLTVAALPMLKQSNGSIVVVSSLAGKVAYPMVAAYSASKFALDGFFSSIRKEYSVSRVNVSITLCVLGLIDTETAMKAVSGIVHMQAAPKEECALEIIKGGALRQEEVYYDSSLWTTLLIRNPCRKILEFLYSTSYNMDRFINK

For `CC(=O)O[C@H]1CC[C@@]2(C)C(CC[C@]3(C)C2C(=O)C=C2C4C[C@@](C)(C(=O)NO)CC[C@]4(C)CC[C@]23C)C1(C)C` (stereo partly drawn) [Compound 1, (3S,18R,20S)-3-(Acetyloxy)-N-hydroxy-11-oxo-olean-12-en-29-amide], the TNFα expression result in the assay on TNFα is “inhibit”. Usually IC50 stands for the concentration at which inhibition is half-maximal. A higher IC50 goes with weaker potency. On to `CONC(=O)[C@@]1(C)CC[C@]2(C)CC[C@]3(C)C(=CC(=O)C4[C@@]5(C)CC[C@H](O)C(C)(C)C5CC[C@]43C)C2C1` (stereo partly drawn) [Compound 16, (3S,18R,20S)-3-Hydroxy-N-methoxy-11-oxo-olean-12-en-29-amide], for which the figures for the half-maximal inhibitory concentration (IC50) at 11β-HSD2 and against 11β-HSD1 were 2130 nM and 929 nM, respectively. As to `CC1(C)[C@@H](O)CC[C@]2(C)[C@H]3C(=O)C=C4[C@@H]5C[C@@](C)(C(=O)O)CC[C@]5(C)CC[C@@]4(C)[C@]3(C)CC[C@@H]12` [GA, Glycyrrhetinic acid], the postsynaptic light response in assay [1] was 30 % of control. The “phosphorylation of C3α by CK-2” value in the assay with CK-2 is “completely inhibited”. For `CC1(C)[C@@H](O[C@H]2O[C@H](C(=O)O)[C@@H](O)[C@H](O)[C@H]2O[C@@H]2O[C@H](C(=O)O)[C@@H](O)[C@H](O)[C@H]2O)CC[C@]2(C)[C@H]3C(=O)C=C4[C@@H]5C[C@@](C)(C(=O)O)CC[C@]5(C)CC[C@@]4(C)[C@]3(C)CC[C@@H]12` [GL, glycyrrhizin], in the assay on PKC and CK-I, the “phosphorylation of HMGB1/2 by PKC and CK-I” value was “completely inhibits”.

With `CC1(C)C2CC[C@]3(C)C(C(=O)C=C4C5C[C@@](C)(C(=O)NO)CC[C@]5(C)CC[C@]43C)[C@@]2(C)CC[C@@H]1O` (stereo partly drawn) [Compound 2, (3S,18R,20S)-3-Hydroxy-N-hydroxy-11-oxo-olean-12-en-29-amide], the inhibition at 1 µM at 11β-HSD1 (Concentration 1000 nmol/L, read-out: Reduction of 11β-HSD1 Activity (%) (average ± standard deviation)) came to 46.7 ± 13.8%. The IC50 at 11β-HSD1 is 1160 nM. `CON[C@H]1CC[C@@]2(C)C(CC[C@]3(C)C2C(=O)C=C2C4C[C@@](C)(C(=O)N(C)O)CC[C@]4(C)CC[C@]23C)C1(C)C` (stereo partly drawn) [Compound 10, (3S,18R,20S)-N-Hydroxy-N-methyl-3-methoxamino-11-dioxo-olean-12-en-29-amide]: the 50% inhibitory concentration (IC50) at 11β-HSD2 was 547 nM; against 11β-HSD1 it was above 40000 nM.
